Source: PubChem BioAssay AID248 (DTP/NCI, 2004)
Values joined by “and” are separate entries in the source; they are usually repeats but may differ in a detail not shown here. Equal values may be shown once. Inconclusive results and toxic doses are left out.

System: L1210 leukemia ip in BDF1 mice, survival T/C
Assay: NCI In Vivo Anticancer Drug Screen. Data for tumor model L1210 Leukemia (intraperitoneal) in B6D2F1 (BDF1) mice
Settings: endpoint: mean survival time, higher = longer survival
Outline: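 Value reflects the ratio of survival in compound-treated mice to survival in vehicle-treated controls, with both groups carrying the same transplanted tumor.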

[1] = dose: 100.0 mg/kg/injection, schedule: Q04DX003 (ip), vehicle: saline with Tween-80
[2] = dose: 100.0 mg/kg/injection, schedule: Q04DX002 (ip), vehicle: Klucel (hydroxypropylcellulose) (HPC)
[3] = dose: 200.0 mg/kg/injection, schedule: Q04DX002 (ip), vehicle: Klucel (hydroxypropylcellulose) (HPC)
[4] = dose: 50.0 mg/kg/injection, schedule: Q01DX009 (ip), vehicle: saline
[5] = dose: 200.0 mg/kg/injection, schedule: Q04DX003 (ip), vehicle: saline with Tween-80
[6] = dose: 400.0 mg/kg/injection, schedule: Q04DX003 (ip), vehicle: saline with Tween-80
[7] = dose: 100.0 mg/kg/injection, schedule: Q01DX009 (ip), vehicle: saline with Tween-80
[8] = dose: 200.0 mg/kg/injection, schedule: Q01DX009 (ip), vehicle: saline with Tween-80
[9] = dose: 400.0 mg/kg/injection, schedule: Q01DX009 (ip), vehicle: saline with Tween-80
[10] = dose: 100.0 mg/kg/injection, schedule: Q01DX001 (ip), vehicle: saline with Tween-80
[11] = dose: 200.0 mg/kg/injection, schedule: Q01DX001 (ip), vehicle: saline with Tween-80
[12] = dose: 400.0 mg/kg/injection, schedule: Q01DX001 (ip), vehicle: saline with Tween-80

Q: Which T/C [1] does the source give for `O=CC(Br)C(Br)c1ccccc1` (stereo unspecified) here?
A: The T/C was 98 % of control.

Q: Which results are given for `C[C@]12CC[C@@H]3c4ccccc4CC[C@H]3[C@@H]1CC[C@@H]2O`?
A: T/C (dose: 62.5 mg/kg/injection, schedule: Q01DX015 (sc), vehicle: steriod suspending solution): 97 % of control; T/C (dose: 125.0 mg/kg/injection, schedule: Q01DX015 (sc), vehicle: steriod suspending solution): 101 % of control; T/C (dose: 250.0 mg/kg/injection, schedule: Q01DX015 (sc), vehicle: steriod suspending solution): 100 % of control; T/C (dose: 500.0 mg/kg/injection, schedule: Q01DX015 (sc), vehicle: steriod suspending solution): 100 % of control

Q: Which results are given for `O=C1/C(=C\c2ccccc2)C(Br)c2ccccc21` (stereo unspecified)?
A: T/C (dose: 12.5 mg/kg/injection, schedule: Q01DX009 (ip), vehicle: water): 95 % of control; T/C (dose: 12.5 mg/kg/injection, schedule: Q04DX003 (ip), vehicle: water): 100 % of control; T/C (dose: 25.0 mg/kg/injection, schedule: Q01DX009 (ip), vehicle: water): 97 % of control; T/C (dose: 25.0 mg/kg/injection, schedule: Q04DX003 (ip), vehicle: water): 91 % of control; T/C (dose: 50.0 mg/kg/injection, schedule: Q01DX009 (ip), vehicle: water): 100 % of control; T/C (dose: 50.0 mg/kg/injection, schedule: Q04DX003 (ip), vehicle: water): 92 % of control

Q: `CC(=O)Nc1ccc2c(c1)C(S)c1ccccc1-2` (stereo unspecified) was tested. Which T/C (dose: 100.0 mg/kg/injection, schedule: Q01DX001 (ip), vehicle: carboxymethylcellulose (CMC)) did it give?
A: Its T/C is 112 % of control.

Q: And the T/C (dose: 200.0 mg/kg/injection, schedule: Q01DX001 (ip), vehicle: carboxymethylcellulose (CMC))?
A: Its T/C is 114 % of control.

Q: What about the T/C (dose: 400.0 mg/kg/injection, schedule: Q01DX001 (ip), vehicle: carboxymethylcellulose (CMC)) of the same molecule?
A: The T/C was 101 % of control.

Q: What does the source list for `COC(=O)C(C)(C)Br`?
A: T/C (dose: 100.0 mg/kg/injection, schedule: Q01DX009 (ip), vehicle: saline sonified): 94 % of control; T/C (dose: 200.0 mg/kg/injection, schedule: Q01DX009 (ip), vehicle: saline sonified): 100 % of control; T/C (dose: 400.0 mg/kg/injection, schedule: Q01DX009 (ip), vehicle: saline sonified): 100 % of control

Q: What does the source list for `NC(=S)N/N=C/c1c(Cl)n(C(=O)c2ccccc2Cl)c2ccccc12`?
A: T/C (dose: 50.0 mg/kg/injection, schedule: Q04DX002 (ip), vehicle: Klucel (hydroxypropylcellulose) (HPC)): 87 % of control; T/C [2]: 87 % of control; T/C [3]: 91 % of control

Q: `CC(N)Cc1ccc(O)cc1` (stereo unspecified) was tested. Which T/C (dose: 25.0 mg/kg/injection, schedule: Q01DX009 (ip), vehicle: saline) did it give?
A: Its T/C is 108 % of control.

Q: And the T/C (dose: 25.0 mg/kg/injection, schedule: Q04DX003 (ip), vehicle: saline)?
A: The T/C was 100 % of control.

Q: What about the T/C [4] of the same molecule?
A: Its T/C is 103 % of control.

Q: What about the T/C (dose: 50.0 mg/kg/injection, schedule: Q04DX003 (ip), vehicle: saline) of the same molecule?
A: Its T/C is 94 % of control.

Q: And the T/C (dose: 100.0 mg/kg/injection, schedule: Q01DX009 (ip), vehicle: saline)?
A: Its T/C is 101 % of control.

Q: What about the T/C (dose: 100.0 mg/kg/injection, schedule: Q04DX003 (ip), vehicle: saline) of the same molecule?
A: Its T/C is 96 % of control.

Q: What about the T/C (dose: 200.0 mg/kg/injection, schedule: Q01DX009 (ip), vehicle: saline) of the same molecule?
A: The T/C was 93 % of control.

Q: What about the T/C (dose: 200.0 mg/kg/injection, schedule: Q04DX003 (ip), vehicle: saline) of the same molecule?
A: The T/C was 100 % of control.

Q: What about the T/C (dose: 400.0 mg/kg/injection, schedule: Q04DX003 (ip), vehicle: saline) of the same molecule?
A: The T/C was 94 % of control.

Q: Which T/C (dose: 10.0 mg/kg/injection, schedule: Q01DX009 (ip), vehicle: saline) does the source give for `CCN(C)N=Nc1cccnc1` here?
A: The T/C was 101 % of control.

Q: What about the T/C (dose: 15.0 mg/kg/injection, schedule: Q01DX009 (ip), vehicle: saline) of the same molecule?
A: Its T/C is 107 % of control.

Q: What about the T/C (dose: 22.0 mg/kg/injection, schedule: Q01DX009 (ip), vehicle: Klucel (hydroxypropylcellulose) (HPC)) of the same molecule?
A: Its T/C is 111 % of control.

Q: What about the T/C (dose: 22.0 mg/kg/injection, schedule: Q01DX009 (ip), vehicle: saline with Tween-80) of the same molecule?
A: Its T/C is 110 % of control.

Q: What about the T/C (dose: 22.0 mg/kg/injection, schedule: Q01DX009 (ip), vehicle: saline) of the same molecule?
A: The T/C was 112 % of control.

Q: And the T/C (dose: 33.0 mg/kg/injection, schedule: Q01DX009 (ip), vehicle: Klucel (hydroxypropylcellulose) (HPC))?
A: Its T/C is 108 % of control.

Q: What about the T/C (dose: 33.0 mg/kg/injection, schedule: Q01DX009 (ip), vehicle: saline with Tween-80) of the same molecule?
A: The T/C was 122 % of control.

Q: What about the T/C (dose: 33.0 mg/kg/injection, schedule: Q01DX009 (ip), vehicle: saline) of the same molecule?
A: Its T/C is 152 % of control.

Q: And the T/C (dose: 50.0 mg/kg/injection, schedule: Q01DX009 (ip), vehicle: Klucel (hydroxypropylcellulose) (HPC))?
A: The T/C was 108 % of control.

Q: What about the T/C [4] of the same molecule?
A: The T/C was 170 % of control.

Q: And the T/C (dose: 75.0 mg/kg/injection, schedule: Q01DX009 (ip), vehicle: Klucel (hydroxypropylcellulose) (HPC))?
A: The T/C was 150 % of control.

Q: And the T/C (dose: 75.0 mg/kg/injection, schedule: Q01DX009 (ip), vehicle: saline with Tween-80)?
A: Its T/C is 122 % of control.

Q: Which results are given for `Cc1ccc(SCCN=C(N)CSS(=O)(=O)O)cc1`?
A: T/C (dose: 12.5 mg/kg/injection, schedule: Q01DX009 (ip), vehicle: Klucel (hydroxypropylcellulose) (HPC)): 94 % of control; T/C (dose: 25.0 mg/kg/injection, schedule: Q01DX009 (ip), vehicle: Klucel (hydroxypropylcellulose) (HPC)): 107 % of control; T/C [2]: 92 % of control; T/C [3]: 101 % of control; T/C (dose: 400.0 mg/kg/injection, schedule: Q04DX002 (ip), vehicle: Klucel (hydroxypropylcellulose) (HPC)): 92 % of control

Q: How did the T/C (dose: 6.25 mg/kg/injection, schedule: Q04DX002 (ip), vehicle: saline with Tween-80) turn out when `CCCCCCC1CCC(N)CC1` (stereo unspecified) was run?
A: The T/C was 95 % of control.

Q: What about the T/C (dose: 12.5 mg/kg/injection, schedule: Q04DX002 (ip), vehicle: saline with Tween-80) of the same molecule?
A: Its T/C is 95 % of control.

Q: And the T/C (dose: 25.0 mg/kg/injection, schedule: Q04DX002 (ip), vehicle: saline with Tween-80)?
A: The T/C was 113 % of control.

Q: For `COc1ccc(NC(=O)N2CCOCC2)cc1OC`, which T/C [1] is on record?
A: The T/C was 102 % of control.

Q: What about the T/C [5] of the same molecule?
A: Its T/C is 96 % of control.

Q: And the T/C [6]?
A: The T/C was 89 % of control.

Q: For `O=C1OCC2C1C1CCC2C1(Cl)Cl` (stereo unspecified), which T/C (dose: 75.0 mg/kg/injection, schedule: Q01DX001 (ip), vehicle: other) is on record?
A: Its T/C is 98 % of control.

Q: Which results are given for `CC#CCOCC1CN(c2ccccc2)C(=O)O1` (stereo unspecified)?
A: T/C [7]: 117 % of control; T/C [1]: 95 % of control; T/C [8]: 103 % of control; T/C [5]: 103 % of control; T/C [9]: 100 % of control; T/C [6]: 101 % of control

Q: What does the source list for `CC(C)/C=N/NC(=O)CCCCCCCCC(=O)N/N=C/C(C)C`?
A: T/C [10]: 97 % of control; T/C [7]: 105 % of control and 106 % of control; T/C (dose: 100.0 mg/kg/injection, schedule: Q04DX002 (ip), vehicle: saline with Tween-80): 97 % of control; T/C [1]: 111 % of control; T/C [11]: 92 % of control; T/C [8]: 100 % of control and 108 % of control; T/C (dose: 200.0 mg/kg/injection, schedule: Q04DX002 (ip), vehicle: saline with Tween-80): 97 % of control; T/C [5]: 110 % of control; T/C [12]: 97 % of control; T/C [9]: 93 % of control and 108 % of control; T/C (dose: 400.0 mg/kg/injection, schedule: Q04DX002 (ip), vehicle: saline with Tween-80): 94 % of control and 95 % of control; T/C [6]: 101 % of control

Q: Which T/C (dose: 6.25 mg/kg/injection, schedule: Q01DX009 (ip), vehicle: saline with Tween-80) does the source give for `CCOC(=O)C1=C(C)NC(C)=C(C(=O)OCC)C1c1ccccc1[N+](=O)[O-]` here?
A: The T/C was 97 % of control.

Q: And the T/C (dose: 12.5 mg/kg/injection, schedule: Q01DX009 (ip), vehicle: saline with Tween-80)?
A: The T/C was 108 % of control.

Q: And the T/C (dose: 25.0 mg/kg/injection, schedule: Q01DX009 (ip), vehicle: saline with Tween-80)?
A: Its T/C is 98 % of control and 105 % of control.

Q: And the T/C [1]?
A: The T/C was 90 % of control.

Q: Which T/C (dose: 100.0 mg/kg/injection, schedule: Q01DX Z (ip), vehicle: methylcellulose (MC)) does the source give for `Cc1ccc(Nc2cc(=S)nc(N)[nH]2)cc1Cl` here?
A: The T/C was 97 % of control.

Q: What about the T/C (dose: 200.0 mg/kg/injection, schedule: Q01DX Z (ip), vehicle: methylcellulose (MC)) of the same molecule?
A: Its T/C is 96 % of control.

Q: How did the T/C [10] turn out when `Nc1nc(N)c(-c2ccc(Cl)c(Cl)c2)c(CCc2ccc(CNC(=O)c3cc(S(=O)(=O)F)ccc3Cl)cc2)n1` was run?
A: Its T/C is 97 % of control.

Q: What about the T/C [11] of the same molecule?
A: The T/C was 94 % of control.

Q: What about the T/C [12] of the same molecule?
A: Its T/C is 94 % of control.

Q: Which results are given for `S=c1nc[nH]c2ncccc12`?
A: T/C (dose: 100.0 mg/kg/injection, schedule: Q04DX003 (ip), vehicle: Klucel (hydroxypropylcellulose) (HPC)): 104 % of control; T/C (dose: 200.0 mg/kg/injection, schedule: Q04DX003 (ip), vehicle: Klucel (hydroxypropylcellulose) (HPC)): 100 % of control; T/C (dose: 400.0 mg/kg/injection, schedule: Q04DX003 (ip), vehicle: Klucel (hydroxypropylcellulose) (HPC)): 97 % of control

Q: Which results are given for `CCCCNC(=O)NNC(=O)CCCC(=O)NNC(=O)NCCCC`?
A: T/C (dose: 50.0 mg/kg/injection, schedule: Q01DX001 (ip), vehicle: saline): 100 % of control; T/C (dose: 100.0 mg/kg/injection, schedule: Q01DX001 (ip), vehicle: saline): 93 % of control; T/C (dose: 200.0 mg/kg/injection, schedule: Q01DX001 (ip), vehicle: saline): 100 % of control
